This is an account of results in the METLIN SMRT retention time set (Domingo-Almenara et al. 2019).

This series in a line: gradient 5% acetonitrile 3 min, to 50% in 2 min, to 85% in 15 min, held 3 min, 100 µL/min. The following applies: column: Zorbax Extend-C18 2.1 x 50 mm; eluents: water / acetonitrile, 0.1% formic acid. In short, it runs like this:
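A Zorbax Extend-C18 column (2.1 × 50 mm, 1.8 μm) run at 100 μL/min with water and acetonitrile, both containing 0.1% formic acid, separated mixtures of ~100 pure standards. The HPLC was coupled to a quadrupole time-of-flight mass spectrometer operated in positive and negative ionization mode, with dead and dwell volumes of 40 μL and 900 μL. Each retention time was taken from a computationally picked adduct peak that was then manually inspected.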
The compound `CCNC(=O)Nc1ccc2c(c1)CN(Cc1ccc(F)cc1F)CCO2` displayed an RP-LC retention time of 611 s.
Turning to `O=C(NCc1ccccn1)c1cn(-c2cc(N3CCOCC3)ncn2)cn1`, the RP-LC retention time was found to be 581 s.
`CCOc1ccc(S(=O)(=O)N2CCC(C(=O)Nc3ccc(Br)cc3F)CC2)cc1`: the RP-LC retention time stood at 1060 s.
Take `COc1ccc(S(=O)(=O)N2CCC(C(=O)Nc3nccs3)CC2)cc1`: the RP-LC retention time was determined as 720 s.
With `Cc1noc(C)c1CC(=O)N1C[C@H]2C[C@H](C1)[C@H]1CCCC(=O)N1C2` the figure was 599 s.
`Cn1c(C(=O)N2CCN(c3ccccn3)CC2)cc2c(-c3cccs3)nn(-c3ccccc3)c21` came in with an RP-LC retention time of 749 s.
`COc1ccc(C2(C(=O)N3CC(c4nc(CCOCC5CCOCC5)no4)C3)CC2)cc1`: the RP-LC retention time is 812 s.
For the compound `CN1CCc2nnc(C3CCN(C(=O)Nc4ccc(Cl)cc4C(F)(F)F)C3)n2CC1` (centres undefined), the RP-LC retention time is 610 s.
`O=C(COc1ccc(F)cc1)N1C[C@@H]2C[C@H]1C[C@@H]2NS(=O)(=O)c1ccccc1` yielded an RP-LC retention time of 793 s.
As to `O=C(c1ccc(-c2noc(C3CC3)n2)cc1)N1CCCN(c2nc3ncccc3o2)CC1`, the RP-LC retention time came out at 760 s.
With `Cn1cc(-c2cc3n(n2)CCC(=O)N3CC(=O)NCC2COCCO2)c2ccccc21` (centres undefined) the figure was 667 s; with `Cc1ccc(-c2noc(-c3ccc(NCCCN4CCOCC4)nc3)n2)cc1`, 695 s; with `CCCNC(=O)CCNc1c(-c2ccc(C)cc2)nc2cnccn12`, 654 s.
Then `CCNc1cc(N2CCCC(CCC(=O)NC3CCCC3)C2)ncn1` (centres undefined), with 646 s; and `c1cncc(CN2CCc3c(sc4ncnc(N5CCOCC5)c34)C2)c1`, with 649 s.
As for `CC(=O)N1CCc2ccccc2C1C(=O)NCc1ccc2c(c1)OCO2` (centres undefined), the RP-LC retention time is 731 s.
In turn, `Cc1ccc(Cn2c(=O)n(CCNC(=O)C3CCC3)c3ncccc32)cc1` came in with an RP-LC retention time of 779 s.
As to `CC1=C(c2ccc(C)cc2)S(=O)(=O)N=C1N1CCCN(C(=O)NC2CCCC2)CC1`, the RP-LC retention time turned out to be 857 s.
Then `Cc1noc(C)c1S(=O)(=O)N1CCC(c2noc(COCC3CC3)n2)CC1`, with 931 s; and `CC(C)n1c(=O)c2ccccc2n(Cc2nc(-c3cccc(Cl)c3)no2)c1=O`, with 1190 s.
In turn, `Cc1ccc(-c2nnc(CC(=O)NCC3CCCO3)o2)cc1` (centres undefined) gave an RP-LC retention time of 667 s.
Then `Cc1onc(-c2ccccc2Cl)c1C(=O)Nn1cnc2c(cnn2C(C)(C)C)c1=O`, with 864 s; and `CCC(=O)NCc1csc(C2CCN(C(=O)C3CCC3)CC2)n1`, with 614 s; and `NC(=O)c1n[nH]c2c1CCCCCC2`, with 644 s.
Turning to `COc1ccc(Cn2nc3ccc(S(=O)(=O)N4CCC(C)CC4)cn3c2=O)cc1F`, the RP-LC retention time came out at 1340 s.
`CC(=O)Nc1ccc(-c2noc(C3CCN(C(=O)C4(c5ccccc5)CC4)CC3)n2)cc1` returned an RP-LC retention time of 837 s.
Turning to `CCOc1cccc(C2CC(c3ccc(Br)cc3)=NC3(CCN(C)CC3)N2)c1O` (centres undefined), the RP-LC retention time turned out to be 649 s.
Then `Cc1ccc(S(=O)(=O)N2CCC(N3CCN(Cc4ccccc4)C(=O)C3=O)CC2)cc1Cl`, with 799 s.
With `CCN1C(=O)CCc2cc(NC(=O)CCc3ccccc3OC)ccc21` the figure was 787 s; with `Cc1ccc(-c2ccc(-n3nc(C)c(S(=O)(=O)N4CCN(C)CC4)c3C)nn2)cc1C`, 731 s.
Then `O=C(CSc1nnc(-c2ccc(Br)cc2)o1)OCc1ccccc1`, with 1150 s.
As for `CC(=O)N1CCc2ccccc2C1C(=O)NC(C)C` (centres undefined), the RP-LC retention time was 672 s.
Then `O=C(COc1ccccc1)N1CCCCC1c1nncn1CC1CC1` (centres undefined), with 731 s; and `Cc1ccc2c(c1)NC(=O)C(C(=O)NC1CCCCCCC1)O2` (centres undefined), with 895 s; and `O=C(NCCC1=CCCCC1)C1CCN(C(=O)c2cccn2-c2cccnc2)CC1`, with 1090 s.
With `CCOCCCNC(=O)C1c2cc(OC)c(OC)cc2C(=O)N2CCc3ccccc3C12` (centres undefined) the figure was 718 s; with `COc1ccc(S(=O)(=O)N2CCC(c3noc(-c4ccncc4)n3)C2)cc1` (centres undefined), 816 s.
Consider `O=S(=O)(c1cc(F)cc(F)c1)N1CCC(c2noc(-c3ccc(F)cc3)n2)CC1`, for which the RP-LC retention time worked out at 1170 s.
With `Cc1nnc(C2CC3(CCN(CCc4ccccc4)CC3)CN2CCc2ccccc2)o1` (centres undefined) the figure was 666 s.
With `O=C(CN1C(=O)c2ccccc2C1=O)NCc1nnnn1-c1ccc(Cl)cc1`, the RP-LC retention time came out at 722 s.
`COCc1cc(=O)n(CC(=O)Nc2cccc(Cl)c2)c(N2CCOCC2)n1` displayed an RP-LC retention time of 884 s.
The compound `CCCCc1ccc(NC(=O)CSc2ccc(N3CCCC(C(=O)NC4CC4)C3)nn2)cc1` (centres undefined) showed an RP-LC retention time of 800 s.
For the compound `CCCNc1nc(N2CCOCC2)nc(N2CC3CC(C2)c2cccc(=O)n2C3)n1` (centres undefined), the RP-LC retention time is 562 s.
With `Cc1c(Cl)cccc1Nc1ccccc1C(=O)O`, the RP-LC retention time was 1060 s.
Compound `CCN1CCN(C(=O)C2CCN(C3=NS(=O)(=O)C(c4ccc(C)c(C)c4)=C3C)CC2)CC1` gave an RP-LC retention time of 598 s.
As for `O=S(=O)(NC1CCCCC1n1cc(-c2ccccc2)nn1)c1ccccc1` (centres undefined), the RP-LC retention time is 789 s.
Consider `CCOc1ccc(-c2nc(CN3C(=O)C(O)(c4ccccc4)c4ccccc43)c(C)o2)cc1` (centres undefined), for which the RP-LC retention time came to 1110 s.
For `Cc1nc2nc(-c3ccc(C(C)(C)C)cc3)nn2c(C)c1CC(=O)N1CCN(CCO)CC1`, the RP-LC retention time worked out at 657 s.
`CCN1C(=O)COc2ccc(-c3csc(NC(=O)CCc4ccccc4)n3)cc21` came in with an RP-LC retention time of 664 s.
As to `c1ccc(-c2noc(C3CNC3)n2)cc1`, the RP-LC retention time worked out at 557 s.
Take `COc1ccc(N2CCCn3c2nc2c3c(=O)n(C)c(=O)n2C)cc1`: the RP-LC retention time amounted to 568 s.
For the compound `Cc1ccc(C)c(NC(=O)C(=O)NCC(c2ccc3c(c2)OCO3)N2CCOCC2)c1` (centres undefined), the RP-LC retention time was found to be 693 s.
`Cc1cc(C(=O)NC2CC2)c2cc(Cl)ccc2n1` yielded an RP-LC retention time of 669 s.
`O=C1C[C@@H](c2ccc(O)c(O)c2)Oc2cc(O[C@H]3O[C@@H](CO)[C@H](O)[C@@H](O)[C@@H]3O)cc(O)c21` returned an RP-LC retention time of 723 s.
Then `Cc1cccc(C)c1NS(=O)(=O)c1cc2c3c(c1)CCC(=O)N3CCC2`, with 848 s; and `COc1cc(F)ccc1-c1ccnc2nc(CC(C)C)nn12`, with 862 s; and `Nc1cc(C2CCN(C(=O)c3ccccc3Br)CC2)no1`, with 676 s.
In turn, `Cc1nnc(N2CCCC(C(=O)NCCc3cccs3)C2)c2nn(-c3ccccc3)c(C)c12` (centres undefined) came in with an RP-LC retention time of 720 s.
With `COc1cc(OC)cc(-n2nnc(-c3nsc(Nc4ccccc4OC)n3)c2C)c1`, the RP-LC retention time was found to be 1050 s.
For the compound `COc1ccc(C2(c3nc(-c4cccc(-c5ccnn5C)c4)no3)CC2)cc1`, the RP-LC retention time is 1150 s.
As for `CCC(=O)Nc1cccn2nc(CC)nc12`, the RP-LC retention time amounted to 657 s.
`CN(C)c1cnc(-n2cc(NC(=O)c3cccc(N(C)C)c3)cn2)nc1`: the RP-LC retention time came out at 672 s.
The compound `Cc1cccc(-c2nnc(-c3cccc(S(=O)(=O)N4CCCC4)c3)o2)c1` showed an RP-LC retention time of 1050 s.
Then `CCOC(=O)c1cccc(NC(=O)c2cnc(-c3ccccc3)nc2-c2ccncc2)c1`, with 924 s.
`CCc1cccc(-n2nnc(C(=O)O)c2CC)c1` came in with an RP-LC retention time of 788 s.
In turn, `O=C(c1ccc2c(c1)N(Cc1ccccc1)C(=O)CO2)N1CCN(c2ccccn2)CC1` came in with an RP-LC retention time of 1230 s.
`COc1ccc(CSc2nccc3c2ccn3CC(=O)N2CCN(c3ccccn3)CC2)cc1` came in with an RP-LC retention time of 592 s.
Then `CC1CN(C(=O)Cn2cc(SCC(=O)N3CCCCC3)c3ccccc32)CC(C)O1` (centres undefined), with 783 s; and `Cc1c(Cl)cccc1NC(=O)CCc1nc(CSc2nnc(-c3ccccc3)o2)no1`, with 949 s; and `O=C(CN1N=C(C(=O)Nc2ccc(F)cc2)CCC1=O)Nc1ccc(F)c(F)c1`, with 838 s.
`Cc1nc([C@@H]2CN(C(=O)c3noc(C)c3Cn3cccn3)C[C@H]2C(N)=O)n[nH]1` displayed an RP-LC retention time of 578 s.
`O=C(CS(=O)(=O)c1cn(Cc2cccc(F)c2)c2ccccc12)Nc1ccc(F)cc1`: the RP-LC retention time amounted to 918 s.
In turn, `Cc1ccc(C)c(NC(=O)CSc2nccc(N3CCN(c4cc(C)ccc4C)CC3)n2)c1` came in with an RP-LC retention time of 989 s.
Compound `CSc1ccc(-c2nc3cc(C)ccn3c2NC2CCCCC2)cc1` came in with an RP-LC retention time of 896 s.
Turning to `CC1(C)C(=O)N(CC(=O)Nc2c3c(nc4ccccc24)CCCC3)c2ccccc21`, the RP-LC retention time worked out at 664 s.
In the case of `CCC1CN(C(=O)N2CCC(C(=O)NCCCOC(C)C)CC2)c2cc(C)ccc2O1` (centres undefined), the RP-LC retention time was determined as 873 s.
`Cc1nc(N2CCOCC2)c2c(C(=O)Nc3ccc(Br)cc3F)c(C)oc2n1` showed an RP-LC retention time of 976 s.
`COc1ccc(C2Cn3cnc(-c4nc(-c5ccc(OC)cc5OC)no4)c3CO2)cc1` (centres undefined) registered an RP-LC retention time of 912 s.
For `CC(C)CCN1CCC(N2CCN(CCc3ccccc3)CC2)C1=O` (centres undefined), the RP-LC retention time worked out at 565 s.
